Results reported in publication PMC4019751 (Bioorganic & medicinal chemistry letters, 2014).

Legend:
[1] = target: T1, human sEH (Homo sapiens, UniProt P34913); assay: FRET competitive displacement assay; format: binding; conditions: for residence time: read-out: t1/2 (residence time on the enzyme)
T1 sequence (P34913 1-555): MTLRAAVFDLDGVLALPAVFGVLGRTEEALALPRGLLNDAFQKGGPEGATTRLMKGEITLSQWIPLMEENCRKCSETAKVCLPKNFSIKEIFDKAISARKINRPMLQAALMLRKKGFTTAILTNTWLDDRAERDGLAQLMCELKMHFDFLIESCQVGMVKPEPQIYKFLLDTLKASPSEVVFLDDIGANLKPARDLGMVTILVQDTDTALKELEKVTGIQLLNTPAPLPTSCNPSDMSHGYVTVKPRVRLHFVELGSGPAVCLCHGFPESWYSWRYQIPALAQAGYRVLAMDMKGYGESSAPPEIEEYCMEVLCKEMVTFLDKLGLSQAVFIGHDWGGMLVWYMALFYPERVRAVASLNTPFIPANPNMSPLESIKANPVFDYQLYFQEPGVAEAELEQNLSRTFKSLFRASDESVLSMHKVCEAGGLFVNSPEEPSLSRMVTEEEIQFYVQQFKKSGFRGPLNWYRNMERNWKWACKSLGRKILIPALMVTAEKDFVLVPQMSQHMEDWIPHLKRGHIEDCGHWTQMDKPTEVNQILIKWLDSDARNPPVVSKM

[2] = target: T2, recombinant purified human sEH (Homo sapiens, UniProt P34913); assay: sEH inhibition, kinetic fluorescent assay with CMNPC substrate; format: biochemical
T2 sequence (P34913 1-555): T1 sequence (P34913 1-555)

| Compound | koff [1] | residence time [1] | inhibition potency in words [2] |
| --- | --- | --- | --- |
| O=C(NCCCCCCCCNC(=O)NC1C2CC3CC(C2)CC1C3)NC1C2CC3CC(C2)CC1C3 (centres unmarked) [3d] | 0.00461 s⁻¹ | 2.5 min | – |
| O=C(NCC1CCN(C(=O)NCC23CC4CC(CC(C4)C2)C3)CC1)NCC12CC3CC(CC(C3)C1)C2 [1f] | – | – | poor potency |
| CC(NC(=O)NCCCCNC(=O)NC(C)C12CC3CC(CC(C3)C1)C2)C12CC3CC(CC(C3)C1)C2 (centres unmarked) [2b] | 0.00142 s⁻¹ | 8 min | – |

The remaining lines, values ahead:

| koff [1] | residence time [1] | inhibition potency in words [2] | Compound |
| --- | --- | --- | --- |
| – | – | poor potency | O=C(NCC12CC3CC(CC(C3)C1)C2)Nc1ccc(NC(=O)NCC23CC4CC(CC(C4)C2)C3)cc1 [1e] |
| 0.00116 s⁻¹ | 10 min | – | O=C(NCCCCCCNC(=O)NCC12CC3CC(CC(C3)C1)C2)NCC12CC3CC(CC(C3)C1)C2 [1c] |
